Source: patent US12195482B1 (Arcus Biosciences, Inc., priority 2022, dated 2025)

Legend:
p-AXL = target: T1, p-AXL (Homo sapiens, UniProt P30530); assay: Axl phosphorylation inhibition ELISA in HEK293T cells transfected with NanoLuc-tagged AXL; type: cell-based; conditions: 1 h compound incubation, media (OptiMEM)
T1 construct: expressed in transfected cells; host or cells: HEK293T
T1 sequence (P30530 26-894): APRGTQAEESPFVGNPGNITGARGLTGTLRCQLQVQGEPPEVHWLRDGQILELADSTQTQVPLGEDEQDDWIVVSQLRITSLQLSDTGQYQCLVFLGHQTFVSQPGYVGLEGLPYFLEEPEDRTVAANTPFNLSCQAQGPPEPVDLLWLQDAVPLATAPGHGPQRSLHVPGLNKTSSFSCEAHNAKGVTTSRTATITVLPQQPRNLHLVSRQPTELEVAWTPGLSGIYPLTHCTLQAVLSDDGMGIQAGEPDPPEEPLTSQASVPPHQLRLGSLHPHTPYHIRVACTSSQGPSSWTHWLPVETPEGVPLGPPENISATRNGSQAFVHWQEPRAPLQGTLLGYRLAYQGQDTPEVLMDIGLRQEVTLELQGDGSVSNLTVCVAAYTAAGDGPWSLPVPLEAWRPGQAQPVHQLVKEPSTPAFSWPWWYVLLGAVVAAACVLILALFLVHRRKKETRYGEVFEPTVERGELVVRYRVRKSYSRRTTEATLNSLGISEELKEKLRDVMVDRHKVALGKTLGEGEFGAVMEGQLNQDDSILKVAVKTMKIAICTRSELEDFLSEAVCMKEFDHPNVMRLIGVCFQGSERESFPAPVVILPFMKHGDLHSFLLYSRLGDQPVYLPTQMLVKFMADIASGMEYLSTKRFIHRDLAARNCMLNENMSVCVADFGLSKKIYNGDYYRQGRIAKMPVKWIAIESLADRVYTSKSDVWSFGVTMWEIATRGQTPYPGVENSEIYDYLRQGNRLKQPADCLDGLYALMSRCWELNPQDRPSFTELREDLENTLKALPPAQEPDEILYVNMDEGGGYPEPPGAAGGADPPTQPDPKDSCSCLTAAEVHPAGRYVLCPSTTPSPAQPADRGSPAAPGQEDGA
Method in brief: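 HEK293T cells transiently transfected one day earlier with NanoLuc-tagged AXL were exposed to 22-point 2-fold compound dilutions for 1 h at 37° C (70,000 cells/well), then lysed. Lysates captured on anti-phospho-tyrosine coated plates for 2 h; bound p-AXL read by NanoLuc luminescence; IC50 from 4-parameter logistic fit.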

Axl = target: T2, Axl (Homo sapiens, UniProt P30530); assay: Biochemical potency, HTRF KinEASE-TK kinase assay; parameters: purchased Invitrogen; conditions: 5 nM AXL, 700 μM ATP
T2 sequence (P30530 26-894): T1 sequence (P30530 26-894)
Method in brief: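 HTRF 665/620 readout after a 2 h RT kinase reaction (final 700 μM ATP, 800 nM biotinylated TK substrate, 1% DMSO, HEPES pH 7.4 buffer) gave percent activity. Final enzyme was 5 nM for AXL, 1 nM for TYRO3 or MER, each preincubated 1 h with compound.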

| IC50 (p-AXL) | IC50 (Axl) | Compound |
| --- | --- | --- |
| < 100 nM | < 100 nM | Cc1ccnnc1-c1ccc(-c2c[nH]c3ncc(-c4ccc5c(c4)CC[C@@H](N4C6COCC4C6)CC5)cc23)cc1 [Example 49, 6-[(7S)-2-{3-[4-(4-Methylpyridazin-3-yl)phenyl]-1H-pyrrolo[2,3-b]pyridin-5-yl}-6,7,8,9-tetrahydro-5H-benzo[7]annulen-7-yl]-3-oxa-6-azabicyclo[3.1.1]heptane] |
| < 100 nM | < 100 nM | Cc1cnc(-c2ccc(-c3c[nH]c4ncc(-c5ccc6c(c5)CC[C@@H](N5C7COCC5C7)CC6)cc34)cc2)c(C)n1 [Example 50, 6-[(7S)-2-{3-[4-(3,5-Dimethylpyrazin-2-yl)phenyl]-1H-pyrrolo[2,3-b]pyridin-5-yl}-6,7,8,9-tetrahydro-5H-benzo[7]annulen-7-yl]-3-oxa-6-azabicyclo[3.1.1]heptane] |
| < 100 nM | < 100 nM | Cc1ccnnc1-c1ccc(-c2c[nH]c3ncc(-c4ccc5c(c4)CC[C@@](C)(N4CCC[C@H]4C)CC5)cc23)cc1 [Example 51, 4-methyl-3-(4-{5-[(7S)-7-Methyl-7-[(2R)-2-methylpyrrolidin-1-yl]-6,7,8,9-tetrahydro-5H-benzo[7]annulen-2-yl]-1H-pyrrolo[2,3-b]pyridin-3-yl}phenyl)pyridazine] |
| < 100 nM | < 100 nM | N#Cc1cccnc1-c1ccc(-c2n[nH]c3ncc(-c4ccc5c(c4)CC[C@@H](N4C6COCC4C6)CC5)cc23)cc1 [Example 52, 2-(4-{5-[(7S)-7-{3-Oxa-6-azabicyclo[3.1.1]heptan-6-yl}-6,7,8,9-tetrahydro-5H-benzo[7]annulen-2-yl]-1H-pyrazolo[3,4-b]pyridin-3-yl}phenyl)pyridine-3-carbonitrile] |
| < 100 nM | < 100 nM | Cc1cnc(C)c(-c2ccc(-c3c[nH]c4ncc(-c5ccc6c(c5)CC[C@@H](N5C7COCC5C7)CC6)cc34)cc2)n1 [Example 53, 6-[(7S)-2-{3-[4-(3,6-Dimethylpyrazin-2-yl)phenyl]-1H-pyrrolo[2,3-b]pyridin-5-yl}-6,7,8,9-tetrahydro-5H-benzo[7]annulen-7-yl]-3-oxa-6-azabicyclo[3.1.1]heptane] |
| < 100 nM | < 100 nM | Cc1nccnc1-c1ccc(-c2c[nH]c3ncc(-c4ccc5c(c4)CC[C@@H](N4C6COCC4C6)CC5)cc23)nc1 [Example 54, 6-[(7S)-2-{3-[5-(3-Methylpyrazin-2-yl)pyridin-2-yl]-1H-pyrrolo[2,3-b]pyridin-5-yl}-6,7,8,9-tetrahydro-5H-benzo[7]annulen-7-yl]-3-oxa-6-azabicyclo[3.1.1]heptane] |
| < 100 nM | < 100 nM | Cc1ccnnc1-c1ccc(-c2n[nH]c3ncc(-c4ccc5c(c4)CC[C@@H](N4C6COCC4C6)CC5)cc23)nc1 [Example 56, 6-[(7S)-2-{3-[5-(4-Methylpyridazin-3-yl)pyridin-2-yl]-1H-pyrazolo[3,4-b]pyridin-5-yl}-6,7,8,9-tetrahydro-5H-benzo[7]annulen-7-yl]-3-oxa-6-azabicyclo[3.1.1]heptane] |
| < 100 nM | < 100 nM | Cc1cnc(-c2ccc(-c3c[nH]c4ncc(-c5ccc6c(c5)CC[C@@](C)(N5CCC[C@H]5C)CC6)cc34)cc2)c(C)n1 [Example 57, 3,5-Dimethyl-2-(4-{5-[(7S)-7-methyl-7-[(2R)-2-methylpyrrolidin-1-yl]-6,7,8,9-tetrahydro-5H-benzo[7]annulen-2-yl]-1H-pyrrolo[2,3-b]pyridin-3-yl}phenyl)pyrazine] |
| < 100 nM | < 100 nM | Cc1cnc(C)c(-c2ccc(-c3c[nH]c4ncc(-c5ccc6c(c5)CC[C@@](C)(N5CCC[C@H]5C)CC6)cc34)cc2)n1 [Example 58, 2,5-Dimethyl-3-(4-{5-[(7S)-7-methyl-7-[(2R)-2-methylpyrrolidin-1-yl]-6,7,8,9-tetrahydro-5H-benzo[7]annulen-2-yl]-1H-pyrrolo[2,3-b]pyridin-3-yl}phenyl)pyrazine] |
| 100 to 1000 nM | < 100 nM | Cc1cnc(-c2ccc(-c3c[nH]c4ncc(-c5ccc6c(c5)CC[C@@H](N5CCCC5)CC6)cc34)cc2)c(C)n1 [Example 59, 3,5-Dimethyl-2-(4-{5-[(7S)-7-(pyrrolidin-1-yl)-6,7,8,9-tetrahydro-5H-benzo[7]annulen-2-yl]-1H-pyrrolo[2,3-b]pyridin-3-yl}phenyl)pyrazine] |
| < 100 nM | < 100 nM | Cc1cc(C)c(-c2ccc(-c3n[nH]c4ncc(-c5ccc6c(c5)CC[C@@H](N5C7COCC5C7)CC6)cc34)cc2)nn1 [Example 77, 6-[(7S)-2-{3-[4-(4,6-Dimethylpyridazin-3-yl)phenyl]-1H-pyrazolo[3,4-b]pyridin-5-yl}-6,7,8,9-tetrahydro-5H-benzo[7]annulen-7-yl]-3-oxa-6-azabicyclo[3.1.1]heptane] |
| < 100 nM | < 100 nM | Cc1cc(C)c(-c2ccc(-c3n[nH]c4ncc(-c5ccc6c(c5)CC[C@@](C)(N5CCC[C@H]5C)CC6)cc34)cc2)nn1 [Example 78, 4,6-Dimethyl-3-(4-{5-[(7S)-7-methyl-7-[(2R)-2-methylpyrrolidin-1-yl]-6,7,8,9-tetrahydro-5H-benzo[7]annulen-2-yl]-1H-pyrazolo[3,4-b]pyridin-3-yl}phenyl)pyridazine] |
| < 100 nM | < 100 nM | Cc1cc(C)c(-c2ccc(-c3c[nH]c4ncc(-c5ccc6c(c5)CC[C@@H](N5C7COCC5C7)CC6)cc34)cc2)nn1 [Example 80, 6-[(7S)-2-{3-[4-(4,6-Dimethylpyridazin-3-yl)phenyl]-1H-pyrrolo[2,3-b]pyridin-5-yl}-6,7,8,9-tetrahydro-5H-benzo[7]annulen-7-yl]-3-oxa-6-azabicyclo[3.1.1]heptane] |
| < 100 nM | < 100 nM | CC(C)(C#N)c1cccnc1-c1ccc(-c2n[nH]c3ncc(-c4ccc5c(c4)CC[C@@H](N4C6COCC4C6)CC5)cc23)cc1 [Example 85, 2-Methyl-2-[2-[4-[5-[(7S)-7-(3-oxa-6-azabicyclo[3.1.1]heptan-6-yl)-6,7,8,9-tetrahydro-5H-benzo[7]annulen-3-yl]-1H-pyrazolo[3,4-b]pyridine-3-yl]phenyl]pyridine-3-yl]propanenitrile] |
| 100 to 1000 nM | < 100 nM | COc1ccnc(-c2ccc(-c3c[nH]c4ncc(-c5ccc6c(c5)CC[C@@H](N5C7COCC5C7)CC6)cc34)cc2)c1C [Example 86, 6-[(7S)-3-[3-[4-(4-Methoxy-3-methylpyridin-2-yl)phenyl]-1H-pyrrolo[2,3-b]pyridin-5-yl]-6,7,8,9-tetrahydro-5H-benzo[7]annulen-7-yl]-3-oxa-6-azabicyclo[3.1.1]heptane] |
| 100 to 1000 nM | < 100 nM | COc1ccnc(-c2ccc(-c3n[nH]c4ncc(-c5ccc6c(c5)CC[C@@H](N5C7COCC5C7)CC6)cc34)cc2)c1C [Example 87, 6-[(7S)-3-[3-[4-(4-Methoxy-3-methylpyridin-2-yl)phenyl]-1H-pyrazolo[3,4-b]pyridin-5-yl]-6,7,8,9-tetrahydro-5H-benzo[7]annulen-7-yl]-3-oxa-6-azabicyclo[3.1.1]heptane] |
| 100 to 1000 nM | < 100 nM | FC(F)(F)c1cccnc1-c1ccc(-c2n[nH]c3ncc(-c4ccc5c(c4)CC[C@@H](N4C6COCC4C6)CC5)cc23)cc1 [Example 88, 6-[(7S)-3-[3-[4-[3-(Trifluoromethyl)pyridin-2-yl]phenyl]-1H-pyrazolo[3,4-b]pyridin-5-yl]-6,7,8,9-tetrahydro-5H-benzo[7]annulen-7-yl]-3-oxa-6-azabicyclo[3.1.1]heptane] |
| 100 to 1000 nM | < 100 nM | FC(F)c1cccnc1-c1ccc(-c2n[nH]c3ncc(-c4ccc5c(c4)CC[C@@H](N4C6COCC4C6)CC5)cc23)cc1 [Example 89, 6-[(7S)-3-[3-[4-[3-(Difluoromethyl)pyridin-2-yl]phenyl]-1H-pyrazolo[3,4-b]pyridin-5-yl]-6,7,8,9-tetrahydro-5H-benzo[7]annulen-7-yl]-3-oxa-6-azabicyclo[3.1.1]heptane] |
| < 100 nM | < 100 nM | C[C@@H]1CCCN1[C@@]1(C)CCc2ccc(-c3cnc4[nH]nc(-c5ccc(-c6ncco6)cc5)c4c3)cc2CC1 [Example 90, 2-(4-{5-[(7S)-7-Methyl-7-[(2R)-2-methylpyrrolidin-1-yl]-6,7,8,9-tetrahydro-5H-benzo[7]annulen-2-yl]-2H-pyrazolo[3,4-b]pyridin-3-yl}phenyl)-1,3-oxazole] |
